# Data from US20060135480A1, “Derivatives of succinic and glutaric acids and analogs thereof useful as inhibitors of phex” (Enobia Pharma, priority 2002, published 2006).
# pIC50: −log10 of the molar value.
# What was measured:
# sPHEX = target: T1, sPHEX (Homo sapiens, UniProt P78562); test: sPHEX inhibitor IC50 determination using a fluorogenic substrate (Abz-GFSDYK-Dnp, S3); type: biochemical; conditions: fluorogenic substrate 20 μM, 100 ng sPHEX, pH 6.5
# T1 construct: The soluble form of the metallopeptidase PHEX (sPHEX) was purified to homogeneity; made in house
# T1 sequence (P78562 53-749 limits assumed): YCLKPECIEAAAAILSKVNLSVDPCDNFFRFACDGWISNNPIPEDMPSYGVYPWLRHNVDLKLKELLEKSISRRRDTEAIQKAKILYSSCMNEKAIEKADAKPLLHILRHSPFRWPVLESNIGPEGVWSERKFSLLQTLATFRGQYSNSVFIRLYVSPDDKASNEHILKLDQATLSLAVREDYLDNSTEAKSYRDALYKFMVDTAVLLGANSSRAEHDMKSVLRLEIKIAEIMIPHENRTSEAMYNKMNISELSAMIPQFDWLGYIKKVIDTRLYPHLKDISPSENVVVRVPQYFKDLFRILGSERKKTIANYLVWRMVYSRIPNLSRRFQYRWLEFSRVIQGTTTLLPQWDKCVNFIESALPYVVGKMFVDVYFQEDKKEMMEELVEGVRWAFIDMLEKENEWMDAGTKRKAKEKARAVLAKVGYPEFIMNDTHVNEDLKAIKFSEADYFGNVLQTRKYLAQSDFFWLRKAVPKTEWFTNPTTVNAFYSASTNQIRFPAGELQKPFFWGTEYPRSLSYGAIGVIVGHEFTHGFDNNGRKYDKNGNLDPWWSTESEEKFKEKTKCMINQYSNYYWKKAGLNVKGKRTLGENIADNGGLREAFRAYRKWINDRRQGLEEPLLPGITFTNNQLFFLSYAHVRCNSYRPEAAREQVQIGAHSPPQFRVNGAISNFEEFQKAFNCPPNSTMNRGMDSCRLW
# Procedure: The soluble form of the metallopeptidase PHEX (sPHEX) was purified to homogeneity according to the methods of Boileau and Crine (WO 00/50580). sPHEX quantity was measured with the Bradford assay (BioRad) using BSA as a standard.
# sPHEX activity was determined using a fluorogenic substrate in which an increase of fluorescence was proportional to substrate conversion to products.
# S3 was synthesized at Dr. Gilles Lajoie's laboratories (University of Western Ontario, Canada) by standard solid phase peptide synthesis. The fluorescent reaction product was excited at 320 nm to fluoresce at 420 nm. Fluorescence was recorded at 420 nm every five minutes over a one-hour period on a fluorescence plate reader (Perkin-Elmer, HTS-7000) to calculate the initial rate of the reaction. Typically, the reaction was carried out in 200 μl of buffer M (50 mM Mes(NaOH) pH 6.5, 150 mM NaCl) containing 100 ng of purified sPHEX and 20 μM of fluorigenic substrate to initiate the reaction. Enzymatic activity was determined by subtracting either the initial rate of substrate in buffer (solvolysis), or the typical reaction rate in which 5 mM EDTA was added prior to initiating the reaction.
# sPHEX inhibitor IC50 determinations were done using the tested inhibitor at various concentrations coming from a serial dilution (usually ranging from 10^−3 M to 10^−12 M) in the reaction described above. IC50 values were calculated using the iterative four parameters non-linear regression formula from the GraphPad™ software (Prism).
# [1] = tested on: primary rat calvaria osteoblasts; test: Mineralization by 45Ca incorporation in cultured rat calvaria osteoblasts; type: cell-based; conditions: fetal rat calvaria cells
# Procedure: In general, to show stimulation of mineralization in cultured cells by PHEX inhibitors, cells of osteoblast lineage are incubated in conditions that favors the mineralization process in the absence and the presence of the PHEX inhibiting compound. This cellular model is used to study osteoblasts proliferation and differentiation, and to follow the mineralization process.
# Mineralization can be monitored by standard techniques such as von Kossa staining or ^45Ca incorporation in the extracellular matrix.
# For example, cells were enzymatically isolated from the calvaria of 21-day old Wistar rat fetuses by sequential digestion with collagenase as described previously (Bellows et al., 1986). Cells obtained from the last four of the five digestion steps were plated in T-75 flasks in α-MEM containing 15% FBS (Cansera) and antibiotics comprising 100 μg/ml penicillin G (Sigma-Aldrich), 50 μg/ml gentamycin (Life Technologies), and 0.3 μg/ml fungizone (Life Technologies). […]
# At day 18, 21 and 25 of rat calvaria osteoblasts culture, mineralization was determined by ^45Ca incorporation assay as described previously (Ecarot et Desbarats, 1999). […] Cell layers were solubilized in 12.5% trichloroacetic acid and aliquots counted for radioactivity.
smiles,measurement,setting,value
"O=C(O)CC(CC(=O)NO)C(=O)NCCc1ccc(-c2ccccc2)cc1 (stereo not drawn) [Example 126, 3-(2-Biphenyl-4-yl-ethylcarbamoyl)4-hydroxycarbamoyl-butyric acid]",pIC50,sPHEX,7.77
same,45Ca incorporation by the cells (mineralization),[1]; 1×10^−5 M (high dose),reduced significantly
same,45Ca incorporation by the cells (mineralization),"[1]; lower concentrations, low dose (10^−6 M)",significantly stimulated
